The text below walks through data of ChEMBL document CHEMBL5665443, “Enzyme Inhibitor Single Concentration assay results for EUbOPEN Chemogenomics Library” (2024).

What all share (settings): Hit No
Test [1] concerns the target Methyl-CpG-binding domain protein 4 (Homo sapiens) (UniProt O95243).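 Note: MBD4 activity read as fluorescence at 594 nm from cleavage and release of a quenched duplex DNA oligonucleotide, with APE1 coupled to incise the strand and raise turnover.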
Description: Inhibition of MBD4 by quantifying inhibition of MBD4-mediated cleavage and dissociation of quenched duplex DNA oligonucleotides, measured as fluorescence at 594 nm. To generate a functional strand incision and increase turn-over this assay is coupled to APE1.
Test [2] has as its target T1, Adenine DNA glycosylase (Homo sapiens) (UniProt Q9UIF7).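 Note: human MUTYH activity read as 594 nm fluorescence from cleavage and release of a quenched DNA duplex, coupled with APE1 for strand incision, lower signal meaning inhibition.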
T1 sequence (whole entry): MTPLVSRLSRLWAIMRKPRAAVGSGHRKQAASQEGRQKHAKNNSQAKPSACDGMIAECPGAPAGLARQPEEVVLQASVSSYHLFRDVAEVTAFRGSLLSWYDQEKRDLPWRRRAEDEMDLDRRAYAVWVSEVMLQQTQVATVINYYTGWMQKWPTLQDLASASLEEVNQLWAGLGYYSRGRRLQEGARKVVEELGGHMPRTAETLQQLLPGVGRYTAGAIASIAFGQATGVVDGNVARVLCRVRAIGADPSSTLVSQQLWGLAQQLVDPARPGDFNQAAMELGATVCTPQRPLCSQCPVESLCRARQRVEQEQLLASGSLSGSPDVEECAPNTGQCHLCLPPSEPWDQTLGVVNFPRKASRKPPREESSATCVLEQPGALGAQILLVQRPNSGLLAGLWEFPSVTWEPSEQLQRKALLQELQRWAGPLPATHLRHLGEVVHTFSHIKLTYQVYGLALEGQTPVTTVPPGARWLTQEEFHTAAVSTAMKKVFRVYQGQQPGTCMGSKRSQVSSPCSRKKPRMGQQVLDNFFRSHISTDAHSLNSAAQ
Description: Inhibition of MUTYH by quantifying inhibition of MUTYH-mediated cleavage and dissociation of quenched duplex DNA oligonucleotides, measured as fluorescence at 594 nm. To generate a functional strand incision and increase turn-over this assay is coupled to APE1.

Test [3] has as its target T2, Single-strand selective monofunctional uracil DNA glycosylase (Homo sapiens) (UniProt Q53HV7).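 Note: enzymatic SMUG1 assay coupled with APE1, reading fluorescence at 594 nm released when a quenched double-stranded DNA oligonucleotide substrate is cleaved and separated.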
T2 sequence (whole entry): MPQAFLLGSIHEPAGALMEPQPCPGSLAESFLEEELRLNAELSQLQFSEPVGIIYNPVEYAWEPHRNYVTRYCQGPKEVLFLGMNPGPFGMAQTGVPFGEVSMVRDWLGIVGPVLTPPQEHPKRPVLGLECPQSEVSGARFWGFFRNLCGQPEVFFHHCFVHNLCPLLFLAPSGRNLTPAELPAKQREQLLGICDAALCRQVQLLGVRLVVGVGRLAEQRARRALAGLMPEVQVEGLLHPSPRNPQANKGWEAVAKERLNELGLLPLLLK
Description: Inhibition of SMUG1 by quantifying inhibition of SMUG1-mediated cleavage and dissociation of quenched duplex DNA oligonucleotides, measured as fluorescence at 594 nm. To generate a functional strand incision and increase turn-over this assay is coupled to APE1.

The target in test [4] is G/T mismatch-specific thymine DNA glycosylase (Homo sapiens) (UniProt Q13569).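 Note: human TDG cleavage of quenched duplex DNA oligonucleotides coupled to APE1, strand release read as fluorescence at 594 nm, inhibition of TDG activity.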
Chain of G/T mismatch-specific thymine DNA glycosylase (Homo sapiens) (Q13569 whole entry): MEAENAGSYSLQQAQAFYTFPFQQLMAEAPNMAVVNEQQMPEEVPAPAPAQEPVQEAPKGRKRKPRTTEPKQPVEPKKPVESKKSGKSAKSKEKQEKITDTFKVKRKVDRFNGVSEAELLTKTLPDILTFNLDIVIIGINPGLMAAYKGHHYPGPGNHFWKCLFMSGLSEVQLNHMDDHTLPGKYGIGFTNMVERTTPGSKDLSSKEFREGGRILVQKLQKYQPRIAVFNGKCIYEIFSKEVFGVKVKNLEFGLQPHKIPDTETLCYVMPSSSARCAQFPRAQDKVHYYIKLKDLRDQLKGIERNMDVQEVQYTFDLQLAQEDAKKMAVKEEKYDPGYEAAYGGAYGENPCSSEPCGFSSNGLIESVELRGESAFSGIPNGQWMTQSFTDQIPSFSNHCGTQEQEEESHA
Description: Inhibition of TDG by quantifying inhibition of TDG-mediated cleavage and dissociation of quenched duplex DNA oligonucleotides, measured as fluorescence at 594 nm. To generate a functional strand incision and increase turn-over this assay is coupled to APE1.
Test [5] addresses Uracil-DNA glycosylase (Homo sapiens) (UniProt P13051).
Description: Inhibition of UNG by quantifying inhibition of UNG-mediated cleavage and dissociation of quenched duplex DNA oligonucleotides, measured as fluorescence at 594 nm. To generate a functional strand incision and increase turn-over this assay is coupled to APE1.
Test [6] deals with Endonuclease 8-like 1 (Homo sapiens) (UniProt Q96FI4).
Chain of Endonuclease 8-like 1 (Homo sapiens) (Q96FI4 whole entry): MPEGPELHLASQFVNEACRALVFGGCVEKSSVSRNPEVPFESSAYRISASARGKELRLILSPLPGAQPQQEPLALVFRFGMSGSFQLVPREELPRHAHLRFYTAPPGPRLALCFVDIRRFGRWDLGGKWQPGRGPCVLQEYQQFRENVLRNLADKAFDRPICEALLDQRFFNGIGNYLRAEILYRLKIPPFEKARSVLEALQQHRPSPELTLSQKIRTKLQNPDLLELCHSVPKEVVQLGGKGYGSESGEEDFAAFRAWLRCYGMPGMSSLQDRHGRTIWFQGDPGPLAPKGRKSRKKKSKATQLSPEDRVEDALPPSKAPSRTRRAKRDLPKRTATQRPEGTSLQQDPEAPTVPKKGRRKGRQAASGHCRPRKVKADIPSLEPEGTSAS
Description: Inhibition of NEIL1 by quantifying inhibition of NEIL1-mediated cleavage and dissociation of quenched duplex DNA oligonucleotides, measured as fluorescence at 594 nm.
In test [7] the target is T3, Endonuclease 8-like 2 (Homo sapiens) (UniProt Q969S2).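 Note: fluorescence at 594 nm reports NEIL2 cutting and release of a quenched double-stranded DNA oligo substrate, reduced signal read as inhibition.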
T3 sequence (whole entry): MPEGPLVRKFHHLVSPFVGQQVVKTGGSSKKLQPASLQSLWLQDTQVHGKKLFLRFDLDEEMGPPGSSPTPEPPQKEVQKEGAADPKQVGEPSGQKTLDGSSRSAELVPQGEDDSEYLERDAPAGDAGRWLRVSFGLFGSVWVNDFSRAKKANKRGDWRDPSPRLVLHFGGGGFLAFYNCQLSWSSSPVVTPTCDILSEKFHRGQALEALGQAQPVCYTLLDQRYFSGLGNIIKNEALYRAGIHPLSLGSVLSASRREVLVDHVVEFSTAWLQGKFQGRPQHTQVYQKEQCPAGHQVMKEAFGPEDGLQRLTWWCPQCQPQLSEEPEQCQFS
Description: Inhibition of NEIL2 by quantifying inhibition of NEIL2-mediated cleavage and dissociation of quenched duplex DNA oligonucleotides, measured as fluorescence at 594 nm.

Test [8] concerns the target N-glycosylase/DNA lyase (Homo sapiens) (UniProt O15527).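 Note: OGG1 cleavage of a quenched duplex DNA oligonucleotide, coupled to APE1 for strand incision, read as fluorescence at 594 nm.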
Description: Inhibition of OGG1 by quantifying inhibition of OGG1-mediated cleavage and dissociation of quenched duplex DNA oligonucleotides, measured as fluorescence at 594 nm. To generate a functional strand incision and increase turn-over this assay is coupled to APE1.

Each structure is given as a SMILES string. Where a SMILES comes first, the peptide text is derived from it.

Chain of N-glycosylase/DNA lyase (Homo sapiens) (O15527 whole entry): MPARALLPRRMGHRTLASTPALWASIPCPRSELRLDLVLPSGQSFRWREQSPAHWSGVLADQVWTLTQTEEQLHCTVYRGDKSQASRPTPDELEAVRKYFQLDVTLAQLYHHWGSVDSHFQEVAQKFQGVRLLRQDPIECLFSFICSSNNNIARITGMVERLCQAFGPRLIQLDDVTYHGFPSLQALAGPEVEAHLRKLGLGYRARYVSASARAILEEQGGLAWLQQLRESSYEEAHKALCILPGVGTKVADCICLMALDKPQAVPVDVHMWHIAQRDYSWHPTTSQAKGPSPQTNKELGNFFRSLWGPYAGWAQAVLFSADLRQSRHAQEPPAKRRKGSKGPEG
Chain of Uracil-DNA glycosylase (Homo sapiens) (P13051 whole entry): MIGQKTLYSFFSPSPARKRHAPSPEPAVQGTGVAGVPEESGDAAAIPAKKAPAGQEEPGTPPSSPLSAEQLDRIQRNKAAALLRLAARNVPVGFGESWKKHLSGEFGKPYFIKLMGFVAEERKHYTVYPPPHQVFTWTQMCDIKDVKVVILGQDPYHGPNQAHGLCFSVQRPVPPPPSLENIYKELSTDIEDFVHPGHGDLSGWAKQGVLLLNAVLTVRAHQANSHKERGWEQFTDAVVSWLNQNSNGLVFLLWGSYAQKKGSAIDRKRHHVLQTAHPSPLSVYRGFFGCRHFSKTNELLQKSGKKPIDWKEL
Chain of Methyl-CpG-binding domain protein 4 (Homo sapiens) (O95243 whole entry, the tested form may be a part): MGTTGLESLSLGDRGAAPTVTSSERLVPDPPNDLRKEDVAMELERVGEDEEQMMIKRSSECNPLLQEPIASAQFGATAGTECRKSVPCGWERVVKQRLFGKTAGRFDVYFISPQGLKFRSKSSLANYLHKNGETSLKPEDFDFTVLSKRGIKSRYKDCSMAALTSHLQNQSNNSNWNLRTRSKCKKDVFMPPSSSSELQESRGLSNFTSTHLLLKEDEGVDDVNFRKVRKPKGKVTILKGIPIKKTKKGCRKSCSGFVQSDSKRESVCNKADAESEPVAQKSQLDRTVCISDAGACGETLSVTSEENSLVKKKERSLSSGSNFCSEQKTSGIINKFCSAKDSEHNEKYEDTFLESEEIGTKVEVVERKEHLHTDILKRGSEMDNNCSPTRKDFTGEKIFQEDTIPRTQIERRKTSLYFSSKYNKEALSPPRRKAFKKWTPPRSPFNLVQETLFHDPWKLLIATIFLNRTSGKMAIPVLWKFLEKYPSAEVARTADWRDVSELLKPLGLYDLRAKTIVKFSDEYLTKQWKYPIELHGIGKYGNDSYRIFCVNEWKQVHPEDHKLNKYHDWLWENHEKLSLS

Broadly, the inhibition is the drop in the measured response relative to a control, in per cent. As to `Cc1cc(NC(=O)Nc2ccc(N(C)C)cc2)c2cc(F)cc(F)c2n1`, the inhibition in test [1] (Compound Concentration 10.0 uM) is 6.31%; in test [2] (Compound Concentration 10.0 uM), 6.04%; in test [3] (Compound Concentration 10.0 uM), -2.31%; in test [4] (Compound Concentration 10.0 uM), 9.41%; in test [5] (Compound Concentration 10.0 uM), -7.93%.
For `Clc1cccc(COc2cncc(N3CCNCC3)n2)c1`, the inhibition is -8.79% in test [1] (Compound Concentration 10.0 uM); 5.27% in test [2] (Compound Concentration 10.0 uM); 5.13% in test [6] (Compound Concentration 10.0 uM); 1.26% in test [7] (Compound Concentration 10.0 uM); 1.71% in test [3] (Compound Concentration 10.0 uM); -5.02% in test [4] (Compound Concentration 10.0 uM). For the same compound, in test [5] (Compound Concentration 10.0 uM), the inhibition is -8.45%.
Take `CN1CC(=O)N=C1NC(=O)Nc1cccc(Cl)c1`: the inhibition in test [2] (Compound Concentration 10.0 uM) was 3.99%; in test [6] (Compound Concentration 10.0 uM) it was -2.58%; in test [7] (Compound Concentration 10.0 uM), 3.76%; in test [8] (Compound Concentration 10.0 uM) it was -2.01%; in test [3] (Compound Concentration 10.0 uM), -1.34%; in test [4] (Compound Concentration 10.0 uM) it was -6.27%.
Turning to `C[C@@H](N)Cc1c[nH]cn1`, the inhibition was -1.26% in test [2] (Compound Concentration 10.0 uM); 3.8% in test [6] (Compound Concentration 10.0 uM); -9.22% in test [7] (Compound Concentration 10.0 uM); -8% in test [8] (Compound Concentration 10.0 uM); -2.12% in test [3] (Compound Concentration 10.0 uM); 19% in test [4] (Compound Concentration 10.0 uM). Also, the inhibition in test [5] (Compound Concentration 10.0 uM) is -6.39%.
As to `C[C@@](Cc1c[nH]c2ccccc12)(NC(=O)Nc1ccc([N+](=O)[O-])cc1)C(=O)NCC1(c2ccccn2)CCCCC1`, the inhibition is 3.6% in test [2] (Compound Concentration 10.0 uM); 7.51% in test [6] (Compound Concentration 10.0 uM); 5.26% in test [7] (Compound Concentration 10.0 uM); -2.05% in test [8] (Compound Concentration 10.0 uM); 0.936% in test [3] (Compound Concentration 10.0 uM); 0.518% in test [4] (Compound Concentration 10.0 uM).
`CC(C)C[C@@H]1NC(=O)[C@@H](C(C)C)NC(=O)[C@@H]2CCCN2C(=O)[C@@H](CC(=O)O)NC(=O)[C@@H](Cc2c[nH]c3ccccc23)NC1=O` (HELM PEPTIDE1{L.[dW].[dD].P.[dV]}$PEPTIDE1,PEPTIDE1,1:R1-5:R2$$$V2.0): the inhibition in test [1] (Compound Concentration 10.0 uM) was -8.68%; in test [2] (Compound Concentration 10.0 uM), 6.29%; in test [6] (Compound Concentration 10.0 uM), -3.47%; in test [7] (Compound Concentration 10.0 uM), 0.764%; in test [3] (Compound Concentration 10.0 uM) it was -0.372%; in test [4] (Compound Concentration 10.0 uM), 0.54%.
As for `CC(C)Oc1ccccc1C(=O)Nc1ccccc1C(=O)Nc1cccc(S(=O)(=O)C(F)(F)F)c1`, the inhibition is 8.72% in test [2] (Compound Concentration 10.0 uM); -8.8% in test [6] (Compound Concentration 10.0 uM); -0.483% in test [7] (Compound Concentration 10.0 uM); 4.21% in test [4] (Compound Concentration 10.0 uM); -8.11% in test [5] (Compound Concentration 10.0 uM).
Take `CN1CCN(c2ccc(OC(F)(F)F)c(Nc3ncc4c(n3)-c3c(c(C(N)=O)nn3CCO)CC4)c2)CC1`: the inhibition was 27.3% in test [2] (Compound Concentration 1.0 uM); 1.33% in test [6] (Compound Concentration 1.0 uM); -8.92% in test [7] (Compound Concentration 1.0 uM); -4.24% in test [8] (Compound Concentration 1.0 uM); 13.3% in test [3] (Compound Concentration 1.0 uM); 38.7% in test [4] (Compound Concentration 1.0 uM). In addition, the inhibition in test [5] (Compound Concentration 1.0 uM) amounted to 3.38%.
As for `CN(c1ccnc(CNc2nc(Nc3ccc4c(c3)CC(=O)N4)ncc2C(F)(F)F)n1)S(C)(=O)=O`, the inhibition in test [1] (Compound Concentration 1.0 uM) is 26.2%; in test [2] (Compound Concentration 1.0 uM), 1.9%; in test [6] (Compound Concentration 1.0 uM) it was 1.52%; in test [7] (Compound Concentration 1.0 uM) it was -6.14%; in test [3] (Compound Concentration 1.0 uM) it was 15.5%; in test [4] (Compound Concentration 1.0 uM) it was 72%. In addition, the inhibition in test [5] (Compound Concentration 1.0 uM) stood at 0.644%.
`Cc1nc[nH]c1CCN`: the inhibition is -5.1% in test [2] (Compound Concentration 10.0 uM); -5.39% in test [6] (Compound Concentration 10.0 uM); -3.73% in test [7] (Compound Concentration 10.0 uM); -7.09% in test [8] (Compound Concentration 10.0 uM); -7.49% in test [3] (Compound Concentration 10.0 uM); 8.2% in test [4] (Compound Concentration 10.0 uM).
With `COc1ccc(S(=O)(=O)c2cc(OC)ccc2S(=O)(=O)c2ccc([C@H](C)NS(C)(=O)=O)cc2)cc1`, the inhibition is 12.1% in test [2] (Compound Concentration 10.0 uM); 2.76% in test [6] (Compound Concentration 10.0 uM); 4.76% in test [7] (Compound Concentration 10.0 uM); -5.59% in test [8] (Compound Concentration 10.0 uM); 4.18% in test [3] (Compound Concentration 10.0 uM); -5.72% in test [4] (Compound Concentration 10.0 uM).
As for `COc1ccc(C(=O)N2CCN(C(=O)/C=C/c3ccc(Br)cc3)CC2)cc1`, the inhibition in test [2] (Compound Concentration 10.0 uM) was 16.7%; in test [6] (Compound Concentration 10.0 uM), 2.61%; in test [7] (Compound Concentration 10.0 uM) it was -6.97%; in test [8] (Compound Concentration 10.0 uM) it was -3.17%; in test [3] (Compound Concentration 10.0 uM) it was -0.421%; in test [4] (Compound Concentration 10.0 uM), -0.119%.
